Peptide text beside a SMILES is read from it.
Experiments:
[1] = Surface plasmon resonance on chip-supported Gram-positive model membrane; format: binding; conditions: highest N-104 concentration, PC:PG Gram-positive model membrane
[2] = test system: P. aeruginosa PA14; experiment: SYTOX Orange PA14 membrane disruption assay; conditions: 25 μM peptide, PA14 10^7 cfu/ml, 1 h at 35 °C, 5 μM SYTOX Orange; positive control 70% ethanol
[3] = test system: wild-type E. coli K-12; experiment: Alamar Blue viability assay of wild-type E. coli K-12; format: cell-based, Escherichia coli; conditions: 100 μM, wild-type E. coli K-12 10^6 cfu/ml, 37 °C, hourly, n = 3
[4] = biological target: thrombin (F2) (Homo sapiens, UniProt P00734); experiment: Affinity pulldown of human tears on peptide columns; format: binding; conditions: pooled human basal tears, 300 mOsm/l, 0.5 M KCl eluant, anti-F2 immunodetection
Procedure: Studies in this work abide by the Declaration of Helsinki principles. As per UVA IRB protocol 18,592, consented normal human volunteers were subjected to 0.5% proparacaine anesthesia of the eye to minimize reflex tearing. Human basal tears were then wicked for 5 min onto filter paper-like Schirmer strips. Those that had wicked a distance of at least 12 mm were subjected to 4 °C elution with 10 mM Na2HPO4, 1.8 mM KH2PO4, 2.7 mM KCl, 137 mM NaCl (pH 7.2) for a final total pooled tear volume of 170 μl. The pool was diluted five-fold in 10 mM Na2HPO4, 1.8 mM KH2PO4, 2.7 mM KCl, and 137 mM NaCl (pH 7.2) with protease inhibitors and subjected to end-over-end mixing with a 100 μl precolumn of Pierce Agarose followed by equal division by protein concentration into each of 100 μl of N-104 or C-95 columns. The solution was mixed for 5 h at 4 °C. Columns were subjected to washing with 10 mM Na2HPO4, 1.8 mM KH2PO4, 2.7 mM KCl, and 137 mM NaCl (pH 7.2) containing the same protease inhibitors followed by elution using KCl (0.3, 0.5, and 1.0 M KCl) in the same buffer. The 0.5 M KCl eluate was submitted for mass spectrometric sequencing by UVA's Biomolecular Analysis Facility, as previously noted. The acquired data were analyzed by database searching using the Sequest search algorithm against UniProt H. sapiens. […]

[5] = test system: PA14 transcriptome; experiment: RNAseq of N-104 treated PA14; format: cell-based, Pseudomonas aeruginosa; conditions: 20 μM N-104 versus N-80/C-25, 45 min at 35 °C, 5 × 10^8 cfu/ml
Procedure: For RNA extraction and sequencing of P. aeruginosa, we used diethylpyrocarbonate (DEPC) treated Eppendorf tubes (except for those used for synthetic peptide incubation). An aliquot of PA14 overnight culture grown for 3.5 to 4.0 h in LB broth to OD600 = 0.5 (5.0 × 10^8 cells) was gently pelleted (12,000g, 30 s), resuspended in 0.5 ml of 1 mM Na2HPO4, 0.18 mM KH2PO4, 0.27 mM KCl, 13.7 mM NaCl (pH 7.2) and incubated with five or 20 μM N-104, or 20 μM N-80/C-25 for 45 min at 35 °C or left untreated. After pelleting (12,000g, 5 min), cells were resuspended in 0.5 ml of TE buffer supplemented with 1 ml of RNA-protect Bacteria Reagent with 5 s of vortexing prior to incubation for 5 min at room temperature, pelleting (5000g, 10 min), and lysis initiated in 200 μl of 15 mg/ml lysozyme together with 20 μl of 2.5 mg/ml proteinase K, both in TE buffer. […] Library construction and sequencing were performed by UVA's Genome Analysis and Technology Core involving mRNA enrichment via the NEBNext rRNA Depletion Kit (Bacteria), and transcriptome sequencing on a Next Seq 500 Mid Output platform, with 150-bp paired-end reads. The range of raw reads for each sample varied from 8 to 10 million, thus ensuring an optimal depth of sequencing that was analyzed by UVA's Bioinformatics Core facility.

SMILES: CC(=O)N[C@@H](C)C(=O)N[C@@H](CCC(N)=O)C(=O)N[C@@H](CCCCN)C(=O)N[C@@H](CC(C)C)C(=O)N[C@@H](CC(C)C)C(=O)N[C@@H](CCCCN)C(=O)N[C@@H](CCCCN)C(=O)N[C@@H](Cc1ccccc1)C(=O)N[C@@H](CO)C(=O)N[C@@H](CC(C)C)C(=O)N[C@@H](CC(C)C)C(=O)N[C@@H](CCCCN)C(=O)N1CCC[C@H]1C(=O)N[C@@H](Cc1c[nH]c2ccccc12)C(=O)N[C@@H](C)C(=O)O [N-104] (Ac-AQKLLKKFSLLKPWA-OH)
- SPR response after buffer wash versus baseline [1]: slightly below baseline
- membrane disruption (SYTOX Orange uptake) [2]: no SYTOX Orange uptake was observed
- bacterial metabolic activity (Alamar Blue) [3]: inhibitory
- binding of tear thrombin to immobilized peptide [4]: binds thrombin
- effect on PA14 respiratory gene expression [5]: promotes the expression of genes regulating anaerobic respiration while largely suppressing those involved in aerobic respiration
